Measured values taken from PubChem BioAssay AID276 (DTP/NCI, 2004).
“And” between values parts separate entries of the source, which are not always exact repeats. Equal values may be shown once. Toxic doses and inconclusive results are not listed. How the source made its calls: active means survival T/C of 150% or more; inactive means T/C below 125% in these data.

System: B6C3F1 mice, Lewis lung carcinoma iv, survival T/C
Experiment: NCI In Vivo Anticancer Drug Screen. Data for tumor model Lewis Lung Carcinoma (intravenous) in B6C3F1 mice
Conditions: endpoint: median survival time, schedule: Q01DX009 (ip), higher = longer survival
Procedure, shortened: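 Tumors were transplanted into mice, which were then dosed with compound or vehicle. Survival was recorded in each group, and the treated figure was divided by the control figure.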

[1] = dose: 50.0 mg/kg/injection, vehicle: Klucel (hydroxypropylcellulose) (HPC)
[2] = dose: 100.0 mg/kg/injection, vehicle: Klucel (hydroxypropylcellulose) (HPC)
[3] = dose: 400.0 mg/kg/injection, vehicle: Klucel (hydroxypropylcellulose) (HPC)

Measured: T/C

Oc1c(Cl)cc(Cl)cc1C=NCCSc1ccc(Cl)cc1
inactive: dose: 25.0 mg/kg/injection, vehicle: Klucel (hydroxypropylcellulose) (HPC) 94 % of control and 105 % of control | [1] 98 % of control and 101 % of control | [2] 97 % of control and 101 % of control | dose: 200.0 mg/kg/injection, vehicle: Klucel (hydroxypropylcellulose) (HPC) 97 % of control and 105 % of control | [3] 101 % of control

C#C[C@]1(O)CC[C@H]2[C@@H]3CCc4cc(O)ccc4[C@H]3CC[C@@]21C
inactive: [1] 118 % of control and 122 % of control | [2] 113 % of control and 114 % of control | [3] 107 % of control

O=C(O)[C@H](Cc1ccccc1)N1C(=O)c2ccccc2C1=O
inactive: dose: 3.12 mg/kg/injection, vehicle: DMSO 102 % of control | dose: 6.25 mg/kg/injection, vehicle: DMSO 105 % of control | dose: 12.5 mg/kg/injection, vehicle: DMSO 105 % of control | dose: 25.0 mg/kg/injection, vehicle: DMSO 100 % of control | dose: 50.0 mg/kg/injection, vehicle: DMSO 98 % of control

CC[C@@H](C)[C@@H]1NC(=O)C(NC(=O)C(CC(C)C)N(C)C(=O)C2CCCN2C(=O)C(C)O)C(C)OC(=O)C(Cc2ccc(OC)cc2)N(C)C(=O)C2CCCN2C(=O)C(CC(C)C)NC(=O)C(C)C(=O)C(C(C)C)OC(=O)C[C@H]1O (stereo partly drawn)
inactive: dose: 25.0 micrograms/kg/injection, vehicle: distilled water + alcohol 96 % of control | dose: 50.0 micrograms/kg/injection, vehicle: distilled water + alcohol 102 % of control | dose: 100.0 micrograms/kg/injection, vehicle: distilled water + alcohol 98 % of control | dose: 200.0 micrograms/kg/injection, vehicle: distilled water + alcohol 96 % of control | dose: 400.0 micrograms/kg/injection, vehicle: distilled water + alcohol 98 % of control
